Source: patent publication US20230233488A1, “NOVEL USE OF A MODULATOR OF GLUCOSYLCERAMIDE DEGRADATION FOR VIRAL INFECTIONS” (SPEDDING RESEARCH SOLUTIONS, SAS, priority 2020, published 2023)

Assays:
Huh7 cells = assay: Cytotoxicity in Huh7 cells (AlamarBlue); assay type: cell-based, human; conditions: 0.391 to 200 μM
A549-ACE2 cells = assay: Cytotoxicity in A549-ACE2 cells (AlamarBlue); conditions: 48 h incubation, 10^−8 to 5.10^−5 M
[1] = tested on: dengue virus serotype 2—strain 16681 (DENV2); assay: DENV2 infection of Huh7 cells, infectious virus release in supernatants (plaque assay on BHK cells); assay type: cell-based
Description: • 2.1 Material and methods Huh7, human hepatoma cells were used for all primary experiments. For all siRNA experiments, cells were seeded in 24-well plates at a concentration of 2×10^5 cells/well in DMEM and 10% FBS. […] During siRNA and drug treatment the media was removed and replaced with DMEM and 2% FBS and a corresponding concentration of siRNA or ambroxol. During viral infection, all media is removed and set aside, and a viral inoculum is added to the cells. The cells and viral inoculum are incubated for 1 hr at room temperature on a rocker. The virus is then aspirated from cells, cells are washed with 1Xphosphate buffer saline (PBS), the media is re-added to the cells, and cells are incubated at 37° C. and 5% CO2 for 24 h. […] Plaque assay analysis of infectious virus release from supernatants was conducted on baby hamster kidney cells (BHK cells). BHK cells are maintained in MEM with 10% FBS. For plaque assays, BHKs are seeded in 6 well plates at a density of […] cells/well. The following day, dilutions of viral supernatants collected from samples are applied to BHK cells, followed by a 1 hr incubation at room temperature, and then cells are overlaid with MEM containing 5% FBS and 2% agarose. Plaques are counted at 6 days post infection. For qRT-PCR analysis, cells are collected post infection in TRIzol reagent (Invitrogen), and RNA is extracted per manufacturer's protocol. A one-step qRT-PCR kit from Agilent (Brilliant III Ultra Fast SYBR Green qRT-PCR Kit) is used to assess viral genome copies. A standard curve of viral RNA is generated using a viral RNA from a cDNA subclone of DENV2 as described in Gullberg RC, et al. 2018. Copies of viral RNA are normalized to the ribosomal protein lateral stalk protein subunit PO (RPLPO) gene using the delta delta Cq method also described in Gullberg RC et al. 2018 (cited above).
Huh7 cells were treated with siRNA targeting glucosylceramidase beta 1 (GBA1) and infected with dengue virus serotype 2—strain 16681 (DENV2) with a multiplicity of infection or MOI=0.3) according to known techniques (Gullberg RC et al. 2018 cited above). After 24 hours post infection (hpi), supernatants were collected and analyzed via plaque assay on baby hamster kidney cells (BHK cells) for infectious virus release.
Huh7 cells were pre-treated with Ambroxol hydrochloride at 0.391, 0.781, 1.56, 3.125, 6.25, 12.5, 25, 50, 100, and 200 μM for 24 h, followed by DENV2 infection with MOI=0.1; or MOI=5). 24 hours post infection, supernatants were collected and analyzed via plaque assay on BHK cells.
Huh7 cells were treated with siRNAs targeting GBA1 and glucosylceramidase beta 2 (GBA2) enzymes followed by DENV2 infection with MOI=0.1; or MOI=5). 24 hpi, supernatants were collected and analyzed via plaque assay on BHK cells while RNA was extracted from cells and analyzed via qRT-PCR for DENV2 genome replication. Results

SARS-CoV-2 = assay: Antiviral activity against SARS-CoV-2 in A549-ACE2 cells (supernatant viral load by RT-qPCR); conditions: for antiviral effect on SARS-CoV-2 replication / viral load: 10^−8 to 5.10^−5 M, 48 h, hydrochloride

## Cl.Nc1c(Br)cc(Br)cc1CN[C@H]1CC[C@H](O)CC1 [Ambroxol, trans-4-(2-Amino-3,5-dibromobenzylamino) cyclohexanol hydrochloride]
Huh7 cells
  cytopathic effect on cells: only the highest concentrations (100 μM and 200 μM) having any cytopathic effect
A549-ACE2 cells
  cell viability (cytotoxicity): no toxic effects on cell viability
[1]; Dengue versus SARS-CoV-2
  potency against Dengue virus relative to SARS-CoV-2: 10 fold
[1]; Dengue virus, DENV2, MOI 0.1, read-out: IC50 against Dengue virus
  IC50: 0.86 µM
[1]; MOI=0.1, Huh7 cells, 24 h post infection
  concentration above which no detectable virus was released from cells: above 6.25 μM
[1]; MOI=0.1, all concentrations tested (0.391 to 200 μM), 24 h pre-treatment, 24 h post infection
  DENV2 release from Huh7 cells, low MOI: statistically significant reduction of DENV2 release
[1]; MOI=5, Huh7 cells, 24 h post infection
  concentration giving a statistically significant reduction of DENV2 release: ≥ 12.5 µM
[1]; MOI=5, all concentrations tested (0.391 to 200 μM), 24 h post infection
  DENV2 release from Huh7 cells, high MOI: reduced DENV2 release
SARS-CoV-2
  antiviral effect on SARS-CoV-2 replication / viral load: significant concentration-dependent antiviral effect
SARS-CoV-2; listed as ambroxol
  antiviral effect on SARS-CoV-2 replication / viral load: concentration-dependent effect reducing SARS-CoV-2 viral load
SARS-CoV-2; dose-response of FIG. 1C
  maximal antiviral effect compared with remdesivir: equivalent to that of remdesivir
SARS-CoV-2; read-out: 50% effective concentration (IC50), SARS-CoV-2 supernatant viral load, MOI 0.1, 48 h post infection, hydrochloride
  IC50: 22 µM
